Key:
[1] = system: E. coli; assay: Quantitative analysis of actives for cannabinoids, culture growth by OD 600 nm (FIG. 18); type: cell-based; conditions: aerobic conditions; compared with No treatment Ctrl
Experimental: FIGS. 17A, 17B and 18 show the results of quantitative analysis of actives for cannabinoids for Lactobacillus crispatus, Lactobacillus gasseri and E. coli. Each sample is treated with a CBD distillate, THC distillate, and De Man, Rogosa and Sharpe (MRS) agar plates as indicated on chart. Additionally, a CBD isolate of the samples is also treated.
The treatment results are measured by OD 600 nm 1715 of one embodiment.

[2] = system: L. crispatus; assay: L. crispatus in anaerobic conditions at 37° C., OD 600 nm (FIG. 19); type: cell-based
Experimental: 1910. […] Confirmation as lactobacilli was confirmed by qPCR. The treatment results are measured by OD 600 nm 1715 of one embodiment.

[3] = system: L. gasseri; assay: L. gasseri in anaerobic conditions at 37° C., OD 600 nm (FIG. 20); type: cell-based
Experimental: 2010. […] Confirmation as lactobacilli was confirmed by qPCR. The treatment results are measured by OD 600 nm 1715 of one embodiment.

[4] = system: Candida albicans; assay: CBD effects on C. albicans, normalized optical density (FIG. 16A); type: cell-based; conditions: anaerobically cultured Candida albicans
[5] = system: Staphylococcus aureus; conditions: reported; cited from earlier work
[6] = system: Streptococcus pneumoniae; conditions: reported; cited from earlier work
[7] = system: L. crispatus; assay: Inhibition results, OD 600 nm (FIG. 21); type: cell-based; conditions: MRS broth
Experimental: (§1) Treatments included Product R 2150, Erythromycin 2152, No trt 2154, and Ctrl 2156. […] A drop in pH was expected and observed. Follow up treatments should include a positive control using a gram-positive antibiotic, e.g erythromycin, vancomycin or tetracycline, to show inhibition of the lactobacilli strains L. gasseri 2130 and L. crispatus 2140. The treatment results are measured by OD 600 nm 1715 of one embodiment.

[8] = system: L. gasseri; assay: Inhibition results, OD 600 nm (FIG. 21); type: cell-based; conditions: MRS broth
Experimental: as §1

## C=C(C)[C@@H]1CCC(C)=C[C@H]1c1c(O)cc(CCCCC)cc1O [CBD isolate, cannabidiol]
[1]
  treatment results measured by OD 600 nm over treatment exposure times (growth inhibition): relatively similar results
[2]
  inhibition of growth (OD 600 nm): lack of inhibition
[3]
  inhibition of growth (OD 600 nm): lack of inhibition

## C=C(C)[C@@H]1CCC(C)=C[C@H]1c1c(O)cc(CCCCC)cc1O [CBD, cannabidiol]
[4]
  CBD effects on C. albicans (Normalized Optical Density over time): positive result
[5]
  inhibitory levels: low micromolar range
[6]
  inhibitory levels: low micromolar range

## CC[C@H]1OC(=O)[C@H](C)[C@@H](O[C@H]2C[C@@](C)(OC)[C@@H](O)[C@H](C)O2)[C@H](C)[C@@H](O[C@@H]2O[C@H](C)C[C@H](N(C)C)[C@H]2O)[C@](C)(O)C[C@@H](C)C(=O)[C@H](C)[C@@H](O)[C@]1(C)O [Erythromycin]
[7]
  inhibition of growth (OD 600 nm): no observed inhibition of growth
[8]
  inhibition of growth (OD 600 nm): no observed inhibition of growth

— patent publication US20230407365A1, “DIAGNOSTIC TOOL FOR SCREENING THE IMPACT OF PRODUCT INGREDIENTS FOR UROGENITAL MICROBIOMES THERAPIES” (priority 2022, published 2023)
